In series [1] the test system is lymphocyte proliferation (LAF); cells from the thymus of normal BALB/c mice. Briefly: comitogen-induced thymocyte proliferation procedure (LAF). The series is classed as cell-based. To be noted: read-out: LAF IC50. The method, then: The immunosuppressive activities for representative compounds of this invention were evaluated in an in vitro standard pharmacological test procedure to measure lymphocyte proliferation (LAF) and in an in vivo standard pharmacological test procedure which evaluated the survival time of pinch skin grafts. […] Cells are harvested and incorporated radioactivity is determined. Inhibition of lymphoproliferation is assessed as percent change in counts per minute from non-drug treated controls. The results are expressed as an IC50.

Series [2] in a line: stability in 0.1M phosphate buffer via HPLC. The series is classed as physicochemical. As for the experimental part: In addition, the stability of representative compounds was tested, via HPLC, in 0.1M phosphate buffer (pH 7.4, 37° C.).
In series [3] the test system is pinch skin graft from male DBA/2 donors transplanted to male BALB/c recipients. Briefly: survival time of pinch skin graft. The series is classed as in vivo, mice. The note with it: for Skin Graft (days), mean graft survival time: intraperitoneally, ± S.D. As for the experimental part:
Representative compounds of this invention were also evaluated in an in vivo test procedure designed to determine the survival time of pinch skin graft from male DBA/2 donors transplanted to male BALB/c recipients. The method is adapted from Billingham R. E. and Medawar P. B., J. Exp. Biol. 28:385-402, (1951). Briefly, a pinch skin graft from the donor is grafted on the dorsum of the recipient as a homograft, and an autograft is used as control in the same region. The recipients are treated with either varying concentrations of cyclosporin A as test control or the test compounds, intraperitoneally. Untreated recipients serve as rejection control. The graft is monitored daily and observations are recorded until the graft becomes dry and forms a blackened scab. This is considered as the rejection day. The mean graft survival time (number of days±S.D.) of the drug treatment group is compared with the control group.

For a further series, the system named is Candida albicans. The note with it: particularly against Candida albicans, both in vitro and in vivo; cited from earlier work.
The conditions of series [4]: alone or in combination with picibanil; cited from earlier work.
For series [5], the system named is experimental allergic encephalomyelitis model, a model for multiple sclerosis. The note with it: cited from earlier work.
The subject of series [6] is adjuvant arthritis model, a model for rheumatoid arthritis. To be noted: cited from earlier work.
For series [7], the system named is formation of IgE-like antibodies. The note with it: cited from earlier work.
Series [8] has as its system systemic lupus erythematosus. To be noted: cited from earlier work.
In series [9] the test system is insulin dependent diabetes mellitus. To be noted: cited from earlier work.
Series [10] concerns smooth muscle cell proliferation and intimal thickening following vascular injury. To be noted: cited from earlier work.
The mark [11] stands for this setting: BALB/c mouse thymocytes, PHA and IL-1, 72 hours.
Setting [12] is: 0.1m phosphate buffer, pH 7.4 buffer, 0.1M phosphate, 37° C., read-out: Stability (converted).

“And” between values parts separate entries of the source, which are not always exact repeats. Equal values may be shown once. Read-outs that look alike come from different tables or passages of the source.

For `COC1CC2CCC(C)C(O)(O2)C(=O)C(=O)N2CCCCC2(C)C(=O)OC(C(C)CC2CCC(OC(=O)CN(C)C)C(OC)C2)CC(=O)C(C)C=C(C)C(O)C(OC)C(=O)C(C)CC(C)C=CC=CC=C1C` (stereo not shown) [C-22-methyl-42-dimethylglycine-rapamycin, C-22-methyl-42-dimethylglycine rapamycin], the IC50 in [1] (setting [11]) came out at 19.9 nM. The half-life in [2] (setting [12]) is 13.5 h.
With `CO[C@H]1C[C@@H]2CC[C@@H](C)[C@@](O)(O2)C(=O)C(=O)N2CCCCC2(C)C(=O)O[C@H]([C@H](C)C[C@@H]2CC[C@@H](O)[C@H](OC)C2)CC(=O)[C@H](C)/C=C(\C)[C@@H](O)[C@@H](OC)C(=O)[C@H](C)C[C@H](C)/C=C/C=C/C=C/1C` (stereo partly shown) [22-methyl-rapamycin, C-22-methyl-rapamycin], in series [1] (setting [11]), the IC50 was found to be 23.5 nM. Besides, the “Skin Graft (days), mean graft survival time” value in series [3] (4 mg/kg) was 9.33 ± 0.52 days and 9.00 ± 0.63 days; in series [3] (*tested at 16 mg/kg) it was 10.17 ± 0.55 days. Besides, in series [3] (relative to grafts without immunosuppressive agent (rejected within 6-7 days)), the “graft survival time (in words)” value was “increased survival time”. Also, in [2] (0.1M phosphate buffer, pH 7.4, 37° C., read-out: half life in stability test (converted)), the half-life was 38 h.
Turning to `CCC12CCCCN1C(=O)C(=O)[C@]1(O)O[C@@H](CC[C@H]1C)C[C@H](OC)/C(C)=C/C=C/C=C/[C@@H](C)C[C@@H](C)C(=O)[C@H](OC)[C@H](O)/C(C)=C/[C@@H](C)C(=O)C[C@@H]([C@H](C)C[C@@H]1CC[C@@H](O)[C@H](OC)C1)OC2=O` (stereo partly shown) [22-ethyl-rapamycin, C-22-ethyl-rapamycin], in series [1] (setting [11]), the IC50 came to 140 nM.
On to `CO[C@H]1C[C@@H]2CC[C@@H](C)[C@@](O)(O2)C(=O)C(=O)N2CCCCC2(C)C(=O)O[C@H]([C@H](C)C[C@@H]2CC[C@@H](O)[C@H](OC)C2)CC(O)[C@H](C)/C=C(\C)[C@@H](O)[C@@H](OC)C(=O)[C@H](C)C[C@H](C)/C=C/C=C/C=C/1C` (stereo partly shown) [22-methyl-27-hydroxyrapamycin, C-22-methyl-C-27-hydroxy-rapamycin], for which the IC50 in [1] (setting [11]) turned out to be 9.9 nM. The half-life in series [2] (0.1m phosphate buffer, pH 7.4) was 21.8 h.
Regarding `CO[C@H]1C[C@@H]2CC[C@@H](C)[C@@](O)(O2)C(=O)C(=O)N2CCCC[C@H]2C(=O)O[C@H]([C@H](C)C[C@@H]2CC[C@@H](O)[C@H](OC)C2)CC(=O)[C@H](C)/C=C(\C)[C@@H](O)[C@@H](OC)C(=O)[C@H](C)C[C@H](C)/C=C/C=C/C=C/1C` [rapamycin], the IC50 in series [1] (Mus musculus, 72 h) was in the range of 0.4 to 9.4 nM. Further, the “Skin Graft (days), mean graft survival time” value in series [3] (4 mg/kg) was 12.01 ± 0.26 days. For the same compound, the “half life in stability test” value in [2] (0.1M phosphate buffer, pH 7.4, 37° C.) lay within 12 to 13 h. Further, the half-life in series [2] (setting [12]) is 12 to 13 h. Also, the antifungal activity result in the series on Candida albicans is “antifungal activity, particularly against Candida albicans, both in vitro and in vivo”. Further, in [4], the antitumor activity result is given as “antitumor activity”. Moreover, the “effect in experimental allergic encephalomyelitis model” value in [5] is given as “effective”. Further, the “effect in adjuvant arthritis model” value in series [6] is reported as “effective”. Further, the “inhibition of formation of IgE-like antibodies” value in [7] is “effectively inhibited”. In addition, in series [8], the “effect in systemic lupus erythematosus” value is listed as “useful in preventing or treating”. The “effect in insulin dependent diabetes mellitus” value in series [9] is “useful in preventing or treating”. Also, the “effect on smooth muscle cell proliferation and intimal thickening” value in series [10] is “useful in preventing or treating”.

(Values after patent publication US5387680A, “C-22 ring stabilized rapamycin derivatives” (American Home Products Corporation, priority 1993, dated 1995).)
